Laboratory results from patent publication US20080009435A1, “Synthetic methods for aplidine and new antitumoral derivatives, methods of making and using them” (Pharma Mar, S.A., a Spain corporation, priority 2000, published 2008).
*1 amine or outer side, *2 acyl side, *3 side chain or, on linkers, in order; H or OH if unused. Where a SMILES comes first, the peptide text is derived from it. Bridges are numbered along the chain shown (N, C = ends). [ ]: non-standard residue; d: D form. The star is where a group is joined. ξ: configuration not given here. X1 = CC[C@H](C)[C@@H](N[*:1])[C@@H](O)CC(=O)O[C@H](C(=O)[C@H](C)C(=O)[*:2])C(C)C; X2 = CC[C@H](C)[C@@H](N[*:1])[C@@H](O)CC(=O)[*:2]; X3 = C[C@H](O[Si](C)(C)C(C)(C)C)C(=O)*; NMeY = CN[C@@H](Cc1ccc(O)cc1)C(=O)O; X6 = O=C1NC2CSC(CCCCC(=O)*)C2N1; dNMeL = CN[C@H](CC(C)C)C(=O)O; Hiv = CC(C)[C@H](O)C(=O)O; Isobutyryl = CC(C)C(=O)*; dLac = C[C@@H](O)C(=O)O; Hexanoyl = CCCCCC(=O)*; Boc = CC(C)(C)OC(=O)*; Lac = C[C@H](O)C(=O)O; CO = O=C([*:1])[*:2]; X5 = S=C(Nc1ccccc1)*; Butyryl = CCCC(=O)*; NHPh = c1ccc(N*)cc1; ξP = O=C(O)C1CCCN1; Ms = CS(=O)(=O)*; NHBu = CCCCN*

Tests used:
[1] = tested on: HT-29 human colon carcinoma; assay: Cytotoxicity IC50 (after Berjeron et al); conditions: Homo sapiens, HT-29, read-out: Cytotoxicity of aplidine derivatives IC50 (Molar) HT29
Description: (§1) Methodology: after Berjeron et al, Biochem and Bioph Res. Comm., 1984, 121, 3, 848-854.
(§2) P388=Murine lymphoma. A549=human lung carcinoma. HT-29=human colon carcinoma. MEL-28=human melanoma.
(§3) A549=human lung carcinoma. HT-29=human colon carcinoma. MEL-28=human melanoma.

[2] = tested on: A549 human lung carcinoma; assay: Cytotoxicity IC50 (after Berjeron et al); conditions: Homo sapiens, A549, read-out: Cytotoxicity of aplidine derivatives IC50 (Molar) A549
Description: as §1, §2, §3

| SMILES | IC50 [1] [nM] | IC50 [2] [nM] |
| --- | --- | --- |
| CC[C@H](C)[C@H]1NC(=O)[C@@H](NC(=O)[C@@H](CC(C)C)N(C)C(=O)CCCCC2SCC3NC(=O)NC32)[C@@H](C)OC(=O)[C@H](Cc2ccc(OC)cc2)N(C)C(=O)[C@@H]2CCCN2C(=O)[C@H](CC(C)C)NC(=O)[C@@H](C)C(=O)[C@H](C(C)C)OC(=O)C[C@@H]1O (stereo partly drawn) [8BISAPL1, [Biotin]^8-didemnin A] (X6-[dNMeL]T[X1]LP[NMeY](Me); ester 2-C) | 4.27 | 4.27 |
| CCCC(=O)N(C)[C@H](CC(C)C)C(=O)N[C@@H]1C(=O)N[C@H]([C@@H](C)CC)[C@@H](O)CC(=O)O[C@@H](C(C)C)C(=O)N[C@@H](CC(C)C)C(=O)N2CCC[C@H]2C(=O)N(C)[C@@H](Cc2ccc(OC)cc2)C(=O)O[C@@H]1C [8BSHPL1, [Hiv]^3-[Butyryl]^8-didemnin A] (Butyryl-[dNMeL]T[X2][Hiv]LP[NMeY](Me); ester 2-C) | 1.04 | 1.04 |
| CCCCNC(=S)N(C)[C@H](CC(C)C)C(=O)N[C@@H]1C(=O)N[C@H]([C@@H](C)CC)[C@@H](O)CC(=O)O[C@@H](C(C)C)C(=O)[C@H](C)C(=O)N[C@@H](CC(C)C)C(=O)N2CCC[C@H]2C(=O)N(C)[C@@H](Cc2ccc(OC)cc2)C(=O)O[C@@H]1C [8BTSAPL1, [Butylthiourea]^8-didemnin A] | 0.945 | 0.945 |
| CCCCNC(=O)N(C)[C@H](CC(C)C)C(=O)N[C@@H]1C(=O)N[C@H]([C@@H](C)CC)[C@@H](O)CC(=O)O[C@@H](C(C)C)C(=O)[C@H](C)C(=O)N[C@@H](CC(C)C)C(=O)N2CCC[C@H]2C(=O)N(C)[C@@H](Cc2ccc(OC)cc2)C(=O)O[C@@H]1C [8BUSAPL1, [Butylurea]^8-didemnin A] ({NHBu-CO}-[dNMeL]T[X1]LP[NMeY](Me); ester 2-C) | 0.0959 | 0.0959 |
| CCCCCC(=O)N(C)[C@H](CC(C)C)C(=O)N[C@@H]1C(=O)N[C@H]([C@@H](C)CC)[C@@H](O)CC(=O)O[C@@H](C(C)C)C(=O)N[C@@H](CC(C)C)C(=O)N2CCC[C@H]2C(=O)N(C)[C@@H](Cc2ccc(OC)cc2)C(=O)O[C@@H]1C [8HSHPL1, [Hiv]^3-[hexanoyl]^8-didemnin A] (Hexanoyl-[dNMeL]T[X2][Hiv]LP[NMeY](Me); ester 2-C) | 10.1 | 10.1 |
| CC[C@H](C)[C@H]1NC(=O)[C@@H](NC(=O)[C@@H](CC(C)C)N(C)C(=O)C(C)C)[C@@H](C)OC(=O)[C@H](Cc2ccc(OC)cc2)N(C)C(=O)[C@@H]2CCCN2C(=O)[C@H](CC(C)C)NC(=O)[C@H](C(C)C)OC(=O)C[C@@H]1O [8ISHPL1, [Hiv]^3-[isobutyryl]^8-didemnin A] (Isobutyryl-[dNMeL]T[X2][Hiv]LP[NMeY](Me); ester 2-C) | 0.522 | 0.522 |
| CC[C@H](C)[C@H]1NC(=O)[C@@H](NC(=O)[C@@H](CC(C)C)N(C)C(=O)C(C)C)[C@@H](C)OC(=O)[C@H](Cc2ccc(OC)cc2)N(C)C(=O)[C@@H]2CCCN2C(=O)[C@H](CC(C)C)NC(=O)[C@H](C(C)C)NC(=O)C[C@@H]1O [8ISVPL1, [Val]^3-[Isobutyryl]^8-didemnin A] (Isobutyryl-[dNMeL]T[X2]VLP[NMeY](Me); ester 2-C) | 0.105 | 0.105 |
| CC[C@H](C)[C@H]1NC(=O)[C@@H](NC(=O)[C@@H](CC(C)C)N(C)S(C)(=O)=O)[C@@H](C)OC(=O)[C@H](Cc2ccc(OC)cc2)N(C)C(=O)[C@@H]2CCCN2C(=O)[C@H](CC(C)C)NC(=O)[C@@H](C)C(=O)[C@H](C(C)C)OC(=O)C[C@@H]1O [8MSAPL1, [Methylsulphonyl]^8-didemnin A] (Ms-[dNMeL]T[X1]LP[NMeY](Me); ester 2-C) | 0.979 | 0.979 |
| CC[C@H](C)[C@H]1NC(=O)[C@@H](NC(=O)[C@@H](CC(C)C)N(C)C(=O)[C@@H]2CCCN2C(=O)OC(C)(C)C)[C@@H](C)OC(=O)[C@H](Cc2ccc(OC)cc2)N(C)C(=O)[C@@H]2CCCN2C(=O)[C@H](CC(C)C)NC(=O)[C@H](C(C)C)OC(=O)C[C@@H]1O [8PSHPL2, [Hiv]^3-[Boc-Pro]^8-didemnin A] (Boc-P[dNMeL]T[X2][Hiv]LP[NMeY](Me); ester 3-C) | 0.922 | 0.922 |
| CC[C@H](C)[C@H]1NC(=O)[C@@H](NC(=O)[C@@H](CC(C)C)N(C)C(=S)Nc2ccccc2)[C@@H](C)OC(=O)[C@H](Cc2ccc(OC)cc2)N(C)C(=O)[C@@H]2CCCN2C(=O)[C@H](CC(C)C)NC(=O)[C@@H](C)C(=O)[C@H](C(C)C)OC(=O)C[C@@H]1O [8PTSAPL1, [Pheylthiourea]^8-didemnin A] (X5-[dNMeL]T[X1]LP[NMeY](Me); ester 2-C) | 0.927 | 0.927 |
| CC[C@H](C)[C@H]1NC(=O)[C@@H](NC(=O)[C@@H](CC(C)C)N(C)C(=O)Nc2ccccc2)[C@@H](C)OC(=O)[C@H](Cc2ccc(OC)cc2)N(C)C(=O)[C@@H]2CCCN2C(=O)[C@H](CC(C)C)NC(=O)[C@@H](C)C(=O)[C@H](C(C)C)OC(=O)C[C@@H]1O [8PUSAPL1, [Phenylurea]^8-didemnin A] ({NHPh-CO}-[dNMeL]T[X1]LP[NMeY](Me); ester 2-C) | 0.0942 | 0.0942 |
| CC[C@H](C)[C@H]1NC(=O)[C@@H](NC(=O)[C@@H](CC(C)C)N(C)C(=O)[C@@H](NC(=O)C(C)C)C(C)C)[C@@H](C)OC(=O)[C@H](Cc2ccc(OC)cc2)N(C)C(=O)[C@@H]2CCCN2C(=O)[C@H](CC(C)C)NC(=O)[C@H](C(C)C)OC(=O)C[C@@H]1O [8V9ISHPL1, [Hiv]^3-[Val]^8-[Isobutyryl]^9-didemnin A] (Isobutyryl-V[dNMeL]T[X2][Hiv]LP[NMeY](Me); ester 3-C) | 9.46 | 9.46 |
| CC[C@H](C)[C@H]1NC(=O)[C@@H](NC(=O)[C@@H](CC(C)C)N(C)C(=O)[C@@H](N)C(C)C)[C@@H](C)OC(=O)[C@H](Cc2ccc(OC)cc2)N(C)C(=O)[C@@H]2CCCN2C(=O)[C@H](CC(C)C)NC(=O)[C@H](C(C)C)OC(=O)C[C@@H]1O [8VSHPL1, [Hiv]^3-[Val]^8-didemnin A] (H-V[dNMeL]T[X2][Hiv]LP[NMeY](Me); ester 3-C) | 1.01 | 1.01 |
| CC[C@H](C)[C@H]1NC(=O)[C@@H](NC(=O)[C@@H](CC(C)C)N(C)C(=O)[C@@H](NC(=O)OC(C)(C)C)C(C)C)[C@@H](C)OC(=O)[C@H](Cc2ccc(OC)cc2)N(C)C(=O)[C@@H]2CCCN2C(=O)[C@H](CC(C)C)NC(=O)[C@H](C(C)C)OC(=O)C[C@@H]1O [8VSHPL2, [Hiv]^3-[Boc-Val]^8-didemnin A] (Boc-V[dNMeL]T[X2][Hiv]LP[NMeY](Me); ester 3-C) | 9.21 | 9.21 |
| CC[C@H](C)[C@H]1NC(=O)[C@@H](NC(=O)[C@@H](CC(C)C)N(C)C(=O)[C@@H]2CCCN2C(=O)[C@H](C)NC(=O)OC(C)(C)C)[C@@H](C)OC(=O)[C@H](Cc2ccc(OC)cc2)N(C)C(=O)[C@@H]2CCCN2C(=O)[C@H](CC(C)C)NC(=O)[C@H](C(C)C)OC(=O)C[C@@H]1O [9BASHPL2, [Hiv]^3-[Boc-Ala]^9-aplidine] (Boc-AP[dNMeL]T[X2][Hiv]LP[NMeY](Me); ester 4-C) | 8.65 | 8.65 |
| CC[C@H](C)[C@H]1NC(=O)[C@@H](NC(=O)[C@@H](CC(C)C)N(C)C(=O)[C@@H]2CCCN2C(=O)C(C)C)[C@@H](C)OC(=O)[C@H](Cc2ccc(OC)cc2)N(C)C(=O)[C@@H]2CCCN2C(=O)[C@H](CC(C)C)NC(=O)[C@H](C(C)C)OC(=O)C[C@@H]1O [9ISHPL1, [Hiv]^3-[Isobutyryl]^9-aplidine] (Isobutyryl-P[dNMeL]T[X2][Hiv]LP[NMeY](Me); ester 3-C) | 0.474 | 0.474 |
| CC[C@H](C)[C@H]1NC(=O)[C@@H](NC(=O)[C@@H](CC(C)C)N(C)C(=O)[C@@H]2CCCN2C(=O)C(C)C)[C@@H](C)OC(=O)[C@H](Cc2ccc(OC)cc2)N(C)C(=O)[C@@H]2CCCN2C(=O)[C@H](CC(C)C)NC(=O)[C@H](C(C)C)NC(=O)C[C@@H]1O [9ISVPL1, [Val]^3-[Isobutyryl]^9-aplidine] (Isobutyryl-P[dNMeL]T[X2]VLP[NMeY](Me); ester 3-C) | 0.475 | 0.475 |
| CC[C@H](C)[C@H]1NC(=O)[C@@H](NC(=O)[C@@H](CC(C)C)N(C)C(=O)C2CCCN2C(=O)[C@@H](C)O)[C@@H](C)OC(=O)[C@H](Cc2ccc(OC)cc2)N(C)C(=O)[C@@H]2CCCN2C(=O)[C@H](CC(C)C)NC(=O)[C@H](C(C)C)OC(=O)C[C@@H]1O (stereo partly drawn) [9LSHPL1(D), [Hiv]^3-[D-Lac]^9-aplidine] (H-[dLac][ξP][dNMeL]T[X2][Hiv]LP[NMeY](Me); ester 4-C) | 0.947 | 0.947 |
| CC[C@H](C)[C@H]1NC(=O)[C@@H](NC(=O)[C@@H](CC(C)C)N(C)C(=O)C2CCCN2C(=O)[C@H](C)O)[C@@H](C)OC(=O)[C@H](Cc2ccc(OC)cc2)N(C)C(=O)[C@@H]2CCCN2C(=O)[C@H](CC(C)C)NC(=O)[C@H](C(C)C)OC(=O)C[C@@H]1O (stereo partly drawn) [9LSHPL1(L), [Hiv]^3-[L-Lac]^9-aplidine, reference compound] (H-[Lac][ξP][dNMeL]T[X2][Hiv]LP[NMeY](Me); ester 4-C) | 0.947 | 0.947 |
| CC[C@H](C)[C@H]1NC(=O)[C@@H](NC(=O)[C@@H](CC(C)C)N(C)C(=O)C2CCCN2C(=O)[C@H](C)O[Si](C)(C)C(C)(C)C)[C@@H](C)OC(=O)[C@H](Cc2ccc(OC)cc2)N(C)C(=O)[C@@H]2CCCN2C(=O)[C@H](CC(C)C)NC(=O)[C@H](C(C)C)OC(=O)C[C@@H]1O (stereo partly drawn) [9LSHPL2(L), [Hiv]^3-[L-Lac(OTBDMS)]^9-aplidine] (X3-[ξP][dNMeL]T[X2][Hiv]LP[NMeY](Me); ester 3-C) | 8.55 | 8.55 |
| CC[C@H](C)[C@H]1NC(=O)[C@@H](NC(=O)[C@@H](CC(C)C)N(C)C(=O)C2CCCN2C(=O)[C@H](C)O)[C@@H](C)OC(=O)[C@H](Cc2ccc(OC)cc2)N(C)C(=O)[C@@H]2CCCN2C(=O)[C@H](CC(C)C)NC(=O)[C@H](C(C)C)NC(=O)C[C@@H]1O (stereo partly drawn) [9LSVPL1(L), [Val]^3-[L-Lac]^9-aplidine] (H-[Lac][ξP][dNMeL]T[X2]VLP[NMeY](Me); ester 4-C) | 0.948 | 0.948 |
